ChEMBL document CHEMBL4002577, “Phenylthiazole antibiotics: A metabolism-guided approach to overcome short duration of action” (Eur J Med Chem, 2017)
Values after ≈ are worked out from the molar mass of the structure shown. Active and inactive are the calls of the source. No cut-off for these calls is given here.

What was measured:
[1] = test system: Staphylococcus aureus; test: Antibacterial activity against methicillin-resistant Staphylococcus aureus 2658 RCMB after 18 to 20 hrs by broth microdilution method; type: functional
[2] = test system: Staphylococcus aureus; test: Antibacterial activity against mupirocin/rifampicin-resistant Staphylococcus aureus RN4220 NRS107 clinical isolate after 18 to 20 hrs by broth microdilution method; type: functional
[3] = test system: Staphylococcus aureus; test: Antibacterial activity against methicillin/ciprofloxacin/gentamicin/clindamycin-resistant Staphylococcus aureus USA200 NRS383 clinical isolate after 18 to 20 hrs by broth microdilution method; type: functional
[4] = test system: Staphylococcus aureus; test: Antibacterial activity against methicillin-resistant Staphylococcus aureus USA400 NRS123 clinical isolate after 18 to 20 hrs by broth microdilution method; type: functional
[5] = test system: Staphylococcus aureus; test: Antibacterial activity against methicillin/ciprofloxacin/clindamycin-resistant Staphylococcus aureus USA100 NRS382 clinical isolate after 18 to 20 hrs by broth microdilution method; type: functional
[6] = test system: Staphylococcus aureus; test: Antibacterial activity against methicillin/erythromycin/tetracycline-resistant Staphylococcus aureus USA300 NRS384 clinical isolate after 18 to 20 hrs by broth microdilution method; type: functional
[7] = test system: Staphylococcus aureus; test: Antibacterial activity against vancomycin-resistant Staphylococcus aureus VRSA4 clinical isolate after 18 to 20 hrs by broth microdilution method; type: functional
[8] = test system: Staphylococcus aureus; test: Antibacterial activity against vancomycin-resistant Staphylococcus aureus VRSA10 clinical isolate after 18 to 20 hrs by broth microdilution method; type: functional
[9] = test system: Staphylococcus aureus; test: Bactericidal activity against mupirocin/rifampicin-resistant Staphylococcus aureus RN4220 NRS107 clinical isolate after 24 hrs; type: functional; conditions: RN4220 NRS107, 24 h
[10] = test system: Staphylococcus aureus; test: Bactericidal activity against methicillin/ciprofloxacin/gentamicin/clindamycin-resistant Staphylococcus aureus USA200 NRS383 clinical isolate after 24 hrs; type: functional; conditions: for MBC: USA200 NRS383, 24 h
[11] = test system: Staphylococcus aureus; test: Bactericidal activity against methicillin-resistant Staphylococcus aureus USA400 NRS123 clinical isolate after 24 hrs; type: functional; conditions: for MBC: USA400 NRS123, 24 h
[12] = test system: Staphylococcus aureus; test: Bactericidal activity against methicillin/ciprofloxacin/clindamycin-resistant Staphylococcus aureus USA100 NRS382 clinical isolate after 24 hrs; type: functional; conditions: for MBC: USA100 NRS382, 24 h
[13] = test system: Staphylococcus aureus; test: Bactericidal activity against methicillin/erythromycin/tetracycline-resistant Staphylococcus aureus USA300 NRS384 clinical isolate after 24 hrs; type: functional; conditions: for MBC: USA300 NRS384, 24 h
[14] = test system: Staphylococcus aureus; test: Bactericidal activity against vancomycin-resistant Staphylococcus aureus VRSA4 clinical isolate after 24 hrs; type: functional; conditions: VRSA4, 24 h
[15] = test system: Staphylococcus aureus; test: Bactericidal activity against vancomycin-resistant Staphylococcus aureus VRSA10 clinical isolate after 24 hrs; type: functional; conditions: VRSA10, 24 h
[16] = test system: HaCaT; test: Cytotoxicity against human HaCaT cells assessed as decrease in cell viability up to 16 ug/ml after 2 hrs by MTS assay; type: cell-based
[17] = test system: Staphylococcus aureus; test: Bactericidal activity against methicillin-resistant Staphylococcus aureus USA400 NRS123 clinical isolate assessed as time required to reduce 3 log10CFU of bacterial load at 4 times MIC by time kill assay; type: functional
[18] = test system: HaCaT; test: Cytotoxicity against human HaCaT cells assessed as decrease in cell viability up to 32 ug/ml after 2 hrs by MTS assay; type: cell-based
[19] = test system: HaCaT; test: Cytotoxicity against human HaCaT cells assessed as decrease in cell viability at 64 ug/ml after 2 hrs by MTS assay; type: cell-based
[20] = Intrinsic clearance in human liver microsomes after 10 to 60 mins in presence of NADPH by LC/MS/MS analysis; type: ADME, microsome; conditions: read-out: CLH
[21] = Half life in human liver microsomes after 10 to 60 mins in presence of NADPH by LC/MS/MS analysis; type: ADME, microsome
[22] = Intrinsic clearance in human liver microsomes after 10 to 60 mins in absence of NADPH by LC/MS/MS analysis; type: ADME, microsome; conditions: read-out: CLH
[23] = Half life in human liver microsomes after 10 to 60 mins in absence of NADPH by LC/MS/MS analysis; type: ADME, microsome
[24] = test system: HaCaT; test: Cytotoxicity against human HaCaT cells assessed as decrease in cell viability up to 8 ug/ml after 2 hrs by MTS assay; type: cell-based
[25] = test system: J774; test: Cytotoxicity against mouse J774 cells assessed as decrease in cell viability at 8 ug/ml after 2 hrs by MTS assay; type: cell-based; conditions: j774, 2 h
[26] = test system: Staphylococcus aureus; test: Potentiation of vancomycin-mediated antibacterial activity against vancomycin-resistant Staphylococcus aureus VRSA4 clinical isolate assessed as reduction in vancomycin MIC at 0.5 times MIC preincubated for 30 mins followed by vancomycin addition measured after 20 to 22 hrs relative to control; type: functional
[27] = test system: Staphylococcus aureus; test: Potentiation of vancomycin-mediated antibacterial activity against vancomycin-resistant Staphylococcus aureus VRSA10 clinical isolate assessed as vancomycin MIC at 0.5 times MIC preincubated for 30 mins followed by vancomycin addition measured after 20 to 22 hrs (reference value: 512 ug/ml); type: functional
[28] = test system: Staphylococcus aureus; test: Bactericidal activity against methicillin-resistant Staphylococcus aureus USA400 NRS123 clinical isolate assessed as reduction of bacterial load at 4 times MIC after 24 hrs by time kill assay; type: functional
[29] = test system: Staphylococcus aureus; test: Antibacterial activity against methicillin-resistant Staphylococcus aureus USA400 NRS123 clinical isolate infected in mouse J774 cells assessed as reduction of bacterial load at 16 ug/ml after 24 hrs relative to control; type: functional

## C/C(=N\NC(=N)N)c1sc(-c2ccc(OC3CCCC3)cc2)nc1C
[1]
  MIC: 15.6 mg/L (≈ 43.7 µM)
[2]
  MIC: 8 mg/L (≈ 22.4 µM)
[3]
  MIC: 2 mg/L (≈ 5.59 µM)
[4]
  MIC: 8 mg/L (≈ 22.4 µM)
[5]
  MIC: 2 mg/L (≈ 5.59 µM)
[6]
  MIC: 8 mg/L (≈ 22.4 µM)
[7]
  MIC: 8 mg/L (≈ 22.4 µM)
[8]
  MIC: 8 mg/L (≈ 22.4 µM)
[9]
  MBC: 8 mg/L (≈ 22.4 µM)
[10]
  Activity: Dose-dependent effect
  MBC: 16 mg/L (≈ 44.8 µM)
[11]
  Activity: Dose-dependent effect
  MBC: 32 mg/L (≈ 89.5 µM)
[12]
  Activity: Dose-dependent effect
  MBC: 4 mg/L (≈ 11.2 µM)
[13]
  Activity: Dose-dependent effect
  MBC: 8 mg/L (≈ 22.4 µM)
[14]
  MBC: 8 mg/L (≈ 22.4 µM)
[15]
  MBC: 8 mg/L (≈ 22.4 µM)
[16]
  Activity: Non-Toxic

## CCCCCCCCCOc1ccc(-c2nc(C)c(/C(C)=N/NC(=N)N)s2)cc1
[1]
  MIC: > 30 mg/L
[2]
  MIC: 16 mg/L (≈ 38.5 µM)
[3]
  MIC: 4 mg/L (≈ 9.62 µM)
[4]
  MIC: 16 mg/L (≈ 38.5 µM)
[6]
  MIC: 16 mg/L (≈ 38.5 µM)
[7]
  MIC: 16 mg/L (≈ 38.5 µM)
[8]
  MIC: 16 mg/L (≈ 38.5 µM)
[9]
  MBC: 16 mg/L (≈ 38.5 µM)
[10]
  MBC: 8 mg/L (≈ 19.2 µM)
[11]
  MBC: 16 mg/L (≈ 38.5 µM)
[12]
  MBC: 8 mg/L (≈ 19.2 µM)
[13]
  MBC: 16 mg/L (≈ 38.5 µM)
[14]
  MBC: 16 mg/L (≈ 38.5 µM)
[15]
  MBC: 16 mg/L (≈ 38.5 µM)

## C/C(=N\NC(=N)N)c1sc(-c2ccc(OCCC(C)C)cc2)nc1C
[1]
  MIC: 7.81 mg/L (≈ 21.7 µM)
[2]
  MIC: 16 mg/L (≈ 44.5 µM)
[3]
  MIC: 8 mg/L (≈ 22.3 µM)
[4]
  MIC: 16 mg/L (≈ 44.5 µM)
[5]
  MIC: 8 mg/L (≈ 22.3 µM)
[6]
  MIC: 16 mg/L (≈ 44.5 µM)
[7]
  MIC: 16 mg/L (≈ 44.5 µM)
[8]
  MIC: 16 mg/L (≈ 44.5 µM)
[9]
  MBC: 16 mg/L (≈ 44.5 µM)
[10]
  MBC: 16 mg/L (≈ 44.5 µM)
[11]
  MBC: > 32 mg/L
[12]
  MBC: 8 mg/L (≈ 22.3 µM)
[13]
  MBC: 32 mg/L (≈ 89 µM)
[14]
  MBC: 32 mg/L (≈ 89 µM)
[15]
  MBC: 32 mg/L (≈ 89 µM)

## CC(=O)NC[C@H]1CN(c2ccc(N3CCOCC3)c(F)c2)C(=O)O1 [LINEZOLID]
[9]
  MBC: 32 mg/L (≈ 94.9 µM)
[10]
  MBC: 32 mg/L (≈ 94.9 µM)
[11]
  MBC: 32 mg/L (≈ 94.9 µM)
[12]
  MBC: 16 mg/L (≈ 47.4 µM)
[13]
  MBC: 16 mg/L (≈ 47.4 µM)
[14]
  MBC: 8 mg/L (≈ 23.7 µM)
[15]
  MBC: 16 mg/L (≈ 47.4 µM)

## CCCCCCOc1ccc(-c2nc(C)c(/C(C)=N/NC(=N)N)s2)cc1
[1]
  MIC: 0.35 mg/L (≈ 0.937 µM)
[2]
  MIC: 4 mg/L (≈ 10.7 µM)
[3]
  MIC: 1 mg/L (≈ 2.68 µM)
[4]
  MIC: 4 mg/L (≈ 10.7 µM)
[5]
  MIC: 2 mg/L (≈ 5.35 µM)
[6]
  MIC: 4 mg/L (≈ 10.7 µM)
[7]
  MIC: 4 mg/L (≈ 10.7 µM)
[8]
  MIC: 4 mg/L (≈ 10.7 µM)
[9]
  MBC: 4 mg/L (≈ 10.7 µM)
[10]
  MBC: 2 mg/L (≈ 5.35 µM)
[11]
  MBC: 16 mg/L (≈ 42.8 µM)
[12]
  MBC: 2 mg/L (≈ 5.35 µM)
[13]
  MBC: 8 mg/L (≈ 21.4 µM)
[14]
  MBC: 4 mg/L (≈ 10.7 µM)
[15]
  MBC: 4 mg/L (≈ 10.7 µM)
[17]
  Time: 24 h
[18]
  Activity: Non-Toxic
[19]
  Activity: Toxic
[20]
  microsomal CLint: < 9.6 µL/min/mg
[21]
  half-life: > 4 h
[22]
  microsomal CLint: < 9.6 µL/min/mg
[23]
  half-life: > 4 h

## CC(=O)CC(c1ccccc1)c1c(O)c2ccccc2oc1=O (stereo unspecified) [WARFARIN]
[20]
  microsomal CLint: < 9.6 µL/min/mg
[22]
  microsomal CLint: < 9.6 µL/min/mg

## CCCCCCCOc1ccc(-c2nc(C)c(/C(C)=N/NC(=N)N)s2)cc1
[1]
  MIC: 0.74 mg/L (≈ 1.91 µM)
[2]
  MIC: 2 mg/L (≈ 5.16 µM)
[3]
  MIC: 0.5 mg/L (≈ 1.29 µM)
[4]
  MIC: 2 mg/L (≈ 5.16 µM)
[5]
  MIC: 1 mg/L (≈ 2.58 µM)
[6]
  MIC: 2 mg/L (≈ 5.16 µM)
[7]
  MIC: 2 mg/L (≈ 5.16 µM)
[8]
  MIC: 2 mg/L (≈ 5.16 µM)
[9]
  MBC: 2 mg/L (≈ 5.16 µM)
[10]
  MBC: 1 mg/L (≈ 2.58 µM)
[11]
  MBC: 4 mg/L (≈ 10.3 µM)
[12]
  MBC: 1 mg/L (≈ 2.58 µM)
[13]
  MBC: 2 mg/L (≈ 5.16 µM)
[14]
  MBC: 2 mg/L (≈ 5.16 µM)
[15]
  MBC: 2 mg/L (≈ 5.16 µM)
[24]
  Activity: Non-Toxic
[25]
  Activity: Toxic
[26]
  fold change (FC): 4
[27]
  MIC: > 128 mg/L

## CN[C@H](CC(C)C)C(=O)N[C@H]1C(=O)N[C@@H](CC(N)=O)C(=O)N[C@H]2C(=O)N[C@H]3C(=O)N[C@H](C(=O)N[C@H](C(=O)O)c4cc(O)cc(O)c4-c4cc3ccc4O)[C@H](O)c3ccc(c(Cl)c3)Oc3cc2cc(c3O[C@@H]2O[C@H](CO)[C@@H](O)[C@H](O)[C@H]2O[C@H]2C[C@](C)(N)[C@H](O)[C@H](C)O2)Oc2ccc(cc2Cl)[C@H]1O [VANCOMYCIN]
[1]
  MIC: 1.95 mg/L (≈ 1.35 µM)
[5]
  MIC: < 1 mg/L
[7]
  MIC: > 512 mg/L
[8]
  MIC: > 512 mg/L
[9]
  MBC: 1 mg/L (≈ 0.69 µM)
[10]
  MBC: 0.5 mg/L (≈ 0.345 µM)
[11]
  MBC: 0.5 mg/L (≈ 0.345 µM)
[12]
  MBC: < 1 mg/L
[13]
  MBC: 1 mg/L (≈ 0.69 µM)
[14]
  MBC: > 512 mg/L
[15]
  MBC: > 512 mg/L
[28]
  Activity: Active
[29]
  Activity: inactive

## CCCCOc1ccc(-c2nc(C)c(/C(C)=N/NC(=N)N)s2)cc1
[1]
  MIC: 15.6 mg/L (≈ 45.2 µM)
[3]
  MIC: 32 mg/L (≈ 92.6 µM)
[5]
  MIC: 32 mg/L (≈ 92.6 µM)
[10]
  MBC: > 64 mg/L
[12]
  MBC: > 128 mg/L
[20]
  microsomal CLint: < 9.6 µL/min/mg
[21]
  half-life: > 4 h
[22]
  microsomal CLint: < 9.6 µL/min/mg
[23]
  half-life: > 4 h
